Results as given in US11339191B2, “Stapled peptides and uses thereof” (Universite de Montpellier, priority 2016, dated 2022).
Bridge positions count the residues as written; N and C are the ends. Square brackets hold non-standard residues; d marks the D form. S5 = C=CCCC[C@](C)(N)C(=O)O; Nle = CCCC[C@H](N)C(=O)O

How the values were obtained:
Type in all cases: cell-based, human
[1] = system: TNFα; test: LPS-stimulated THP-1 monocytes, TNFα in culture supernatant by ELISA
Protocol: (§1) THP1 cells were cultured (300 000 cells/well) in RPMI 1640 supplemented with 10% fetal calf serum, 1% penicillin/streptomycin and L-glutamine. The cells were treated with 0.1 μg/ml LPS for 6 h for TNFα, and 24 h for IL-6 and IL-1β. The peptides were solubilized in 4% DMSO and used at 5 and 20 μM. The peptides were added at the same time as the LPS. The determination of the cytokines in the culture supernatants was carried out with the specific ELISA kits (eBioscience).
(§2) For all conditions tested, THP-1 monocytes were cultured (300 000 cells/well) in RPMI with 10% fetal calf serum; 1% penicillin/streptomycin and L-glutamine. THP-1 were treated with 0.1 μg/mL of LPS for 24 hours, stapled-peptides IRAK2-S1 et IRAKM-S1 were used at 1 to 20 μM and added at the same time for condition A, 6 hours before LPS for condition B and 6 hours after LPS for condition C. The quantification of cytokine in the culture supernatants was carried out with specific IL-6 and TNFα ELISA (eBioscience).
(§3) For all conditions tested, THP-1 monocytes were cultured (300 000 cells/well) in RPMI with 10% fetal calf serum; 1% penicillin/streptomycin and L-glutamine. THP-1 were treated with 0.1 μg/mL of LPS for 24 hours, stapled-peptides IRAK2-S1, IRAK2-JMV6649, IRAKM-S1 and IRAKM-JMV6650 were used at 10 to 20 μM and added at the same time for «Simultaneous» condition, 6 hours before LPS for «preventive» condition and 6 hours after LPS for «curative» condition. Using ELISA (eBioscience), IL-6 and TNFα quantification was carried out in monocyte culture supernatants.

[2] = system: IL-6; test: LPS-stimulated THP-1 monocytes, IL-6 in culture supernatant by ELISA; details: for effect on the expression level of IL-6: curative condition (peptide 6 hours after LPS), 1 to 20 μM; for IL-6 expression compared with the S1 peptide: curative condition; for efficacy on IL-6 compared with the IRAK2 peptide (IRAK2-S1): 10 to 20 μM
Protocol: as §1, §2, §3

[3] = system: CHOP, BIP and GRP94 genes; test: Tunicamycin-induced ER stress in THP-1 cells, expression of the CHOP, BIP and GRP94 genes by RT-qPCR; details: THP-1, tunicamycin 0.1 μg/ml
Protocol: To assess the specificity of recognition of stapled peptides IRAK2, we induced ER stress in human monocytic cell line THP-1 by treatment with tunicamycin (0.1 μg/ml) for 8 h and 24 h.
THP-1 cells were cultured (300 000 cells/well) in RPMI 1640 supplemented with 10% fetal calf serum, 1% penicillin/streptomycin and L-glutamine. The cells were treated with 0.1 μg/ml tunicamycin for 30 min, 8 H or 24 H. The peptide was solubilized in 4% DMSO and used at concentrations ranging from 1 to 20 μM. Total cell RNAs were extracted with the miRNeasy kit (Qiagen), the expression levels of the genes were measured by RT-qPCR with Taqman assays (Lifetechnology) technology.
We have shown that IRAK2 is the main kinase expressed at 8 h, compared to IRAK1 (FIG. 3A). Measurement of the expression of the CHOP, BIP and GRP94 genes validated the activation of the ER stress at 8H as expected according to literature (FIG. 3B). In this study the peptides IRAK2 Li, IRAKM Li, IRAK2 S1, IRAK2 S2 (Li for linear peptide and S1 and S2 for stapled peptide) were tested. […] This inhibition was specific since, stapled peptide concentration of 20 μM, control stapled peptide (Mock S) has no effect (FIG. 3D).

[4] = system: THP-1 cells; test: Viability and morphology of PMA-treated THP-1 cells with peptide; details: THP-1, peptide 20 μM
Protocol: (§4) We stimulated the THP-1 monocytes with 0.1 μg/ml PMA for 48 h to induce differentiation into macrophages, and treated with 20 μM stapled peptide (IRAK2-S1 or Mock-S).
(§5) THP1 cells were cultured (300,000 cells/well) in RPMI 1640 supplemented with 10% fetal calf serum, 1% penicillin/streptomycin and L-glutamine. The cells were treated with 0.1 μg/ml of PMA for 48 h. The peptides were solubilized in 4% DMSO and used at 20 μM. The peptides are added together with the PMA. Total RNA of the cells were extracted by the miRNeasy kit (Qiagen), the level of expression of IL-1β was measured by RT-qPCR technology by Taqman assays (lifetechnology)
(§6) After extraction of the RNAs, we quantified by RT-qPCR the level of expression of the RNA of IL-1β (FIG. 4A). Using ELISA method, the cytokine secretion was measured in the supernatant of the treated THP-1 (FIG. 4B). The IRAK2-S1 peptide was able to block the expression and production of IL-1β at 20 μM. At this concentration, the peptide appears to have no effect on viability and morphology of the cells.

[5] = system: IL-1β; test: PMA-induced macrophage differentiation of THP-1 monocytes, IL-1β RNA (RT-qPCR) and secretion (ELISA); details: THP-1, PMA 0.1 μg/ml 48 h, peptide 20 μM
Protocol: as §4, §5, §6

[6] = system: IL-1β; test: LPS-stimulated THP-1 monocytes, IL-1β in culture supernatant by ELISA; details: THP1, LPS 0.1 μg/ml 24 h, peptide 5 and 20 μM added at the same time as LPS
Protocol: as §1

[7] = simultaneous condition, peptide 20 μM
[8] = curative condition (peptide 6 hours after LPS), 10 μM
[9] = curative condition (peptide 6 hours after LPS), 20 μM
[10] = preventive condition (peptide 6 hours before LPS), 20 μM
[11] = simultaneous condition, LPS 0.1 μg/mL 24 h, peptide 10 and 20 μM
[12] = preventive condition (peptide 6 hours before LPS), 10 μM

Substance: Ac-ITF-S5-NLL-S5-YYGP-NH2 (Ac-ITF[S5]NLL[S5]YYGP-NH2; staple 4-8; SMILES CC[C@H](C)[C@H](NC(C)=O)C(=O)N[C@H](C(=O)N[C@@H](Cc1ccccc1)C(=O)N[C@@]1(C)CCCC=CCCC[C@@](C)(C(=O)N[C@@H](Cc2ccc(O)cc2)C(=O)N[C@@H](Cc2ccc(O)cc2)C(=O)NCC(=O)N2CCC[C@H]2C(N)=O)NC(=O)[C@H](CC(C)C)NC(=O)[C@H](CC(C)C)NC(=O)[C@H](CC(N)=O)NC1=O)[C@@H](C)O) [Mock-S, reference compound]
- inhibition of TNFα expression [1, 7]: 15 to 20%
- inhibition of IL-6 expression [2, 7]: 15 to 20%
- expression of ER stress genes (specificity control) ([3]; peptide 20 μM): no effect

Substance: Ac-KSG-S5-REL-S5-WSWAQK-NH2 (Ac-KSG[S5]REL[S5]WSWAQK-NH2; staple 4-8; SMILES CC(=O)N[C@@H](CCCCN)C(=O)N[C@@H](CO)C(=O)NCC(=O)N[C@@]1(C)CCCC=CCCC[C@@](C)(C(=O)N[C@@H](Cc2c[nH]c3ccccc23)C(=O)N[C@@H](CO)C(=O)N[C@@H](Cc2c[nH]c3ccccc23)C(=O)N[C@@H](C)C(=O)N[C@@H](CCC(N)=O)C(=O)N[C@@H](CCCCN)C(N)=O)NC(=O)[C@H](CC(C)C)NC(=O)[C@H](CCC(=O)O)NC(=O)[C@H](CCCNC(=N)N)NC1=O) [IRAKM-S1]
- inhibition of TNFα secretion [1, 8]: No inhibition
- inhibition of TNFα secretion [1, 9]: 15 to 20%
- inhibition of TNFα secretion [1, 10]: 95%
- inhibition of TNFα secretion [1, 11]: significantly inhibit
- inhibition of TNFα expression [1, 7]: up to 95%
- effect on the expression level of IL-6 [2]: no effect
- inhibition of IL-6 secretion [2, 10]: 90%
- inhibition of IL-6 secretion [2, 11]: significantly inhibit
- inhibition of IL-6 expression [2, 7]: ≤ 90%

Substance: Ac-KSG-S5-REL-S5-WSWAQKNKTI-NH2 (Ac-KSG[S5]REL[S5]WSWAQKNKTI-NH2; staple 4-8; SMILES CC[C@H](C)[C@H](NC(=O)[C@@H](NC(=O)[C@H](CCCCN)NC(=O)[C@H](CC(N)=O)NC(=O)[C@H](CCCCN)NC(=O)[C@H](CCC(N)=O)NC(=O)[C@H](C)NC(=O)[C@H](Cc1c[nH]c2ccccc12)NC(=O)[C@H](CO)NC(=O)[C@H](Cc1c[nH]c2ccccc12)NC(=O)[C@]1(C)CCCC=CCCC[C@](C)(NC(=O)CNC(=O)[C@H](CO)NC(=O)[C@H](CCCCN)NC(C)=O)C(=O)N[C@@H](CCCNC(=N)N)C(=O)N[C@@H](CCC(=O)O)C(=O)N[C@@H](CC(C)C)C(=O)N1)[C@@H](C)O)C(N)=O) [IRAKM-JMV6649]
- increase of inhibition of TNFα expression compared with IRAKM-S1 ([1]; curative condition, 20 μM): not significant
- greater inhibition of TNFα expression compared with IRAKM-S1 ([1]; preventive condition, 10 μM): 20%
- additive inhibitory effect on TNFα expression compared with IRAKM-S1 ([1]; simultaneous condition, 20 μM): no additive inhibitory effect
- IL-6 expression compared with the S1 peptide ([2]; 20 μM): not significant
- additional inhibition of IL-6 expression compared with IRAKM-S1 ([2]; preventive condition, 10 μM): 60%
- additional inhibition of IL-6 expression compared with IRAKM-S1 ([2]; preventive condition, 20 μM): 80%
- decrease of IL-6 secretion compared with IRAKM-S1 ([2]; simultaneous condition, 20 μM): more than 70%

Substance: Ac-S5-REL-S5-WWWGBRQA-NH2 (Ac-[S5]REL[S5]WWWG[Nle]RQA-NH2; staple 1-5; SMILES CCCC[C@H](NC(=O)CNC(=O)[C@H](Cc1c[nH]c2ccccc12)NC(=O)[C@H](Cc1c[nH]c2ccccc12)NC(=O)[C@H](Cc1c[nH]c2ccccc12)NC(=O)[C@]1(C)CCCC=CCCC[C@](C)(NC(C)=O)C(=O)N[C@@H](CCCNC(=N)N)C(=O)N[C@@H](CCC(=O)O)C(=O)N[C@@H](CC(C)C)C(=O)N1)C(=O)N[C@@H](CCCNC(=N)N)C(=O)N[C@@H](CCC(N)=O)C(=O)N[C@@H](C)C(N)=O) [IRAK2-S1]
- effect on viability and morphology of the cells [4]: no effect
- TNFα secreted after LPS stimulation ([1]; THP1, LPS 0.1 μg/ml 6 h, peptide 5 and 20 μM added at the same time as LPS): reduced the expression of the 3 cytokines in a dose-dependent manner
- inhibition of TNFα secretion [1, 8]: ≤ 30%
- inhibition of TNFα secretion [1, 9]: ≤ 70%
- inhibition of TNFα expression [1, 12]: No inhibition
- inhibition of TNFα secretion [1, 10]: 15 to 20%
- inhibition of TNFα secretion [1, 11]: significantly inhibit
- production of IL-1β in supernatant ([5]; ELISA): able to block
- expression of IL-1β RNA ([5]; RT-qPCR): able to block
- IL-6 secreted after LPS stimulation ([2]; THP1, LPS 0.1 μg/ml 24 h, peptide 5 and 20 μM added at the same time as LPS): reduced the expression of the 3 cytokines in a dose-dependent manner
- effect on the expression level of IL-6 [2]: no effect
- inhibition of IL-6 expression [2, 12]: No inhibition
- inhibition of IL-6 secretion [2, 10]: 15 to 20%
- inhibition of IL-6 secretion [2, 11]: significantly inhibit
- IL-1β secreted after LPS stimulation [6]: reduced the expression of the 3 cytokines in a dose-dependent manner
- expression of CHOP, GRP94 and BIP (ER stress) ([3]; simultaneous treatment, peptide 1 to 20 μM, RT-qPCR): blocked in a dose-dependent manner

Substance: Ac-VSI-S5-REL-S5-WWWGBRQATV-NH2 (Ac-VSI[S5]REL[S5]WWWG[Nle]RQATV-NH2; staple 4-8; SMILES CCCC[C@H](NC(=O)CNC(=O)[C@H](Cc1c[nH]c2ccccc12)NC(=O)[C@H](Cc1c[nH]c2ccccc12)NC(=O)[C@H](Cc1c[nH]c2ccccc12)NC(=O)[C@]1(C)CCCC=CCCC[C@](C)(NC(=O)[C@@H](NC(=O)[C@H](CO)NC(=O)[C@@H](NC(C)=O)C(C)C)[C@@H](C)CC)C(=O)N[C@@H](CCCNC(=N)N)C(=O)N[C@@H](CCC(=O)O)C(=O)N[C@@H](CC(C)C)C(=O)N1)C(=O)N[C@@H](CCCNC(=N)N)C(=O)N[C@@H](CCC(N)=O)C(=O)N[C@@H](C)C(=O)N[C@H](C(=O)N[C@H](C(N)=O)C(C)C)[C@@H](C)O) [IRAK2-JMV6650]
- additional inhibition of TNFα production compared with the S1 peptide ([1]; curative condition, 10 to 20 μM): not significant
- efficacy on TNFα compared with the IRAK2 peptide (IRAK2-S1) ([1]; preventive condition, 10 to 20 μM, data not shown): No more efficacy
- efficacy on TNFα compared with the IRAK2 peptide (IRAK2-S1) ([1]; simultaneous condition, 10 to 20 μM): No more efficacy
- IL-6 expression compared with the S1 peptide ([2]; 20 μM): acts as IRAK2-S1
- efficacy on IL-6 compared with the IRAK2 peptide (IRAK2-S1) ([2]; preventive condition, data not shown): No more efficacy
- efficacy on IL-6 compared with the IRAK2 peptide (IRAK2-S1) ([2]; simultaneous condition): No more efficacy
